Experimental findings from patent US20100137313A1 (ASTRAZENECA AB, priority 2008, published 2010) are described below.

Experiment [1] deals with S. pneumoniae Topoisomerase IV ATPase (ParE) (Streptococcus pneumoniae serotype 4, UniProt Q59961). In words: S. pneumoniae Topoisomerase IV ATPase inhibition. Type of experiment: biochemical. To be noted: values marked * are an average of two or more data points; for inhibition at 13 µM: read-out: % Inh (13 μM) of S. pneumoniae Topoisomerase IV ATPase. An outline of the steps: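 Malachite green/ammonium molybdate phosphate detection, A650. 1.25 nM ParE, 160 μM ATP, sheared salmon sperm DNA 5 μg/ml, 20 mM Tris pH 8.0, 8.0 mM MgCl2. Controls: 2% DMSO = 0%, 20 μM EDTA = 100% inhibition; IC50 over 10 concentrations.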
S. pneumoniae Topoisomerase IV ATPase (ParE), sequence (Q59961 whole entry): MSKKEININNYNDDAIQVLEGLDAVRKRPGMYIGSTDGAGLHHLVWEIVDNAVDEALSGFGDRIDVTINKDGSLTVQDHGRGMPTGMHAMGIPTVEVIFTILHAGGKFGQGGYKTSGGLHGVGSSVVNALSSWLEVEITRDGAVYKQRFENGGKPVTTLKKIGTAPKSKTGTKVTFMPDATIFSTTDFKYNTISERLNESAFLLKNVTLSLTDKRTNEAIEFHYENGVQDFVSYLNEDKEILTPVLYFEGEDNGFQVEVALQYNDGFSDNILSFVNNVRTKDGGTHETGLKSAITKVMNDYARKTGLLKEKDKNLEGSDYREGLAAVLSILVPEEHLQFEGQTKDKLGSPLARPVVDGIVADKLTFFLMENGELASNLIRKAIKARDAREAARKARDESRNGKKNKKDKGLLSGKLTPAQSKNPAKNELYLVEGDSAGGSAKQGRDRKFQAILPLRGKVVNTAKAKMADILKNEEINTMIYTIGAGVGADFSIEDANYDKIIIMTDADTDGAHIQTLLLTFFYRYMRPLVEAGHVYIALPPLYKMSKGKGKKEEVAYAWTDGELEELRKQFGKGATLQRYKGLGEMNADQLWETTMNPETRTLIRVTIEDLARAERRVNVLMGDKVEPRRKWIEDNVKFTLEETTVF

In experiment [2] the test system is Spn 548 (gram+). In words: Bacterial susceptibility testing in liquid media (MIC). The conditions noted are these: Streptococcus pneumoniae; lowest concentration reducing growth by 80% or more; 37° C., 24 hrs. Type of experiment: cell-based. The text has this:
(§1) Compounds may be tested for antimicrobial activity by susceptibility testing in liquid media. Compounds may be dissolved in dimethylsulfoxide and tested in 10 doubling dilutions in the susceptibility assays. The organisms used in the assay may be grown overnight on suitable agar media and then suspended in a liquid medium appropriate for the growth of the organism. The suspension can be a 0.5 McFarland and a further 1 in 10 dilution can be made into the same liquid medium to prepare the final organism suspension in 100 μL. Plates can be incubated under appropriate conditions at 37° C. for 24 hrs prior to reading. The Minimum Inhibitory Concentration (MIC) may be determined as the lowest drug concentration able to reduce growth by 80% or more.

Experiment [3] relates to Mca 445 (gram−). The experiment is described as above. Type of experiment: cell-based. To be noted: Moraxella catarrhalis; lowest concentration reducing growth by 80% or more; 37° C., 24 hrs.
Source text: as §1

The test system of experiment [4] is Spy 838 (gram+). Described as above. To be noted: Streptococcus pyogenes; lowest concentration reducing growth by 80% or more; 37° C., 24 hrs. Format: cell-based.
Source text: as §1

In brackets after ≈: the same amount, converted by molar mass.

The MIC is the lowest concentration found to suppress growth. Read a low MIC as a more susceptible organism.

As for `NCCCNc1nc(Nc2ccc(F)c(Cl)c2)ncc1-c1cncnc1` [Ex 211], the inhibition at 13 µM in experiment [1] worked out at 76.6%. The values for the MIC in experiment [2], in experiment [3] and in experiment [4] were 25 µM (≈ 9.35 µg/mL), 12.5 µM (≈ 4.67 µg/mL) and 25 µM (≈ 9.35 µg/mL), respectively.
Turning to `Fc1ccc(Nc2ncc(-c3cncnc3)c(NCCc3ccncc3)n2)cc1Cl` [Example 46, N^2-(3-chloro-4-fluorophenyl)-N^4-(2-pyridin-4-ylethyl)-5-pyrimidin-5-ylpyrimidine-2,4-diamine], the inhibition at 13 µM in experiment [1] stood at 93.5%. The minimum inhibitory concentration (MIC) in experiment [2] was found to be 3.13 µM (≈ 1.32 µg/mL); in experiment [3], 3.13 µM (≈ 1.32 µg/mL); in experiment [4] it was 8.84 µM (≈ 3.73 µg/mL).
On to `O=C(O)c1ccc(-c2cnc(Nc3ccc(F)c(Cl)c3)nc2N2CCOCC2)s1` [Example 176, 5-(2-(3-chloro-4-fluorophenylamino)-4-morpholinopyrimidin-5-yl)thiophene-2-carboxylic acid], for which the inhibition at 13 µM in experiment [1] was 89%. Further, the minimum inhibitory concentration (MIC) in experiment [2] came out at 6.25 µM (≈ 2.72 µg/mL); in experiment [3] it was 0.78 µM (≈ 0.339 µg/mL); in experiment [4] it was 12.5 µM (≈ 5.44 µg/mL).
For the compound `COCCn1cc(-c2cnc(Nc3cc(OC)cc(OC)c3)nc2-n2nc(C(F)(F)F)cc2C)cc(C(=O)O)c1=O` [Example 1160, 5-(2-(3,5-dimethoxyphenylamino)-4-(5-methyl-3-(trifluoromethyl)-1H-pyrazol-1-yl)pyrimidin-5-yl)-1-(2-methoxyethyl)-2-oxo-1,2-dihydropyridine-3-carboxylic acid], the inhibition at 13 µM in experiment [1] stood at 100%.
As for `COCCn1cc(-c2cnc(Nc3cc(OC)cc(OC)c3)nc2-n2nc(C(F)(F)F)cc2C)cc(C(=O)NS(C)(=O)=O)c1=O` [Example 1161, 5-(2-(3,5-dimethoxyphenylamino)-4-(5-methyl-3-(trifluoromethyl)-1H-pyrazol-1-yl)pyrimidin-5-yl)-1-(2-methoxyethyl)-N-(methylsulfonyl)-2-oxo-1,2-dihydropyridine-3-carboxamide], the inhibition at 13 µM in experiment [1] was 81%.
Still for that read-out and setting: in the case of `CCS(=O)(=O)NC(=O)c1cc(-c2cnc(Nc3cc(OC)cc(OC)c3)nc2-n2nc(C(F)(F)F)cc2C)cn(CCOC)c1=O` [Example 1162, 5-(2-(3,5-dimethoxyphenylamino)-4-(5-methyl-3-(trifluoromethyl)-1H-pyrazol-1-yl)pyrimidin-5-yl)-N-(ethylsulfonyl)-1-(2-methoxyethyl)-2-oxo-1,2-dihydropyridiine-3-carboxamide] it was 100%.
Still for that read-out and setting: then `COCCn1cc(-c2cnc(Nc3cc(OC)cc(OC)c3)nc2-n2ccc(C(F)(F)F)n2)cc(C(=O)NS(C)(=O)=O)c1=O` [Example 1163, 5-(2-(3,5-dimethoxyphenylamino)-4-(3-(trifluoromethyl)-1H-pyrazol-1-yl)pyrimidin-5-yl)-1-(2-methoxyethyl)-N-(methylsulfonyl)-2-oxo-1,2-dihydropyridine-3-carboxamide], with 100%.
On the same count and under the same terms, in the case of `CCS(=O)(=O)NC(=O)c1cc(-c2cnc(Nc3cc(OC)cc(OC)c3)nc2-n2ccc(C(F)(F)F)n2)cn(CCOC)c1=O` [Example 1164] it was 100%.
As to `Cc1cc(C)cc(Nc2ncc(-c3cc(C(=O)O)c(=O)n(C)c3)c(-n3nc(C(F)(F)F)cc3C)n2)c1` [Example 1166, 5-(2-(3,5-dimethylphenylamino)-4-(5-methyl-3-(trifluoromethyl)-1H-pyrazol-1-yl)pyrimidin-5-yl)-1-methyl-2-oxo-1,2-dihydropyridine-3-carboxylic acid], the inhibition at 13 µM in experiment [1] came out at 100%.
On the same count and under the same terms, in the case of `COc1cc(Nc2ncc(-c3cnc(OC)c(C(=O)NOCCN4CCOCC4)c3)c(-n3ccc(C(F)(F)F)n3)n2)cc(OC)c1` [Example 1167, 5-(2-(3,5-dimethoxyphenylamino)-4-(3-(trifluoromethyl)-1H-pyrazol-1-yl)pyrimidin-5-yl)-2-methoxy-N-(2-morpholinoethoxy)nicotinamide] it was 100%.
Same read-out and setting: in the case of `COCCONC(=O)c1cc(-c2cnc(Nc3cc(OC)cc(OC)c3)nc2-n2ccc(C(F)(F)F)n2)cnc1OC` [Example 1168, 5-(2-(3,5-dimethoxyphenylamino)-4-(3-(trifluoromethyl)-1H-pyrazol-1-yl)pyrimidin-5-yl)-2-methoxy-N-(2-methoxyethoxy)nicotinamide] it was 100%.
Turning to `COc1cc(C)cc(Nc2ncc(-c3cnc(OC)c(-c4n[nH]c(=O)o4)c3)c(-n3ccc(C(F)(F)F)n3)n2)c1` [Example 1169, 5-(2-methoxy-5-{2-[(3-methoxy-5-methylphenyl)amino]-4-[3-(trifluoromethyl)-1H-pyrazol-1-yl]pyrimidin-5-yl}pyridin-3-yl)-1,3,4-oxadiazol-2(3H)-one], in experiment [1], the inhibition at 13 µM came to 100%.
On the same count and under the same terms, in the case of `COc1cc(C)cc(Nc2ncc(-c3cnc(OC)c(-c4n[nH]c(=O)o4)c3)c(-n3nc(C(F)(F)F)cc3C)n2)c1` [Example 1170, 5-(2-methoxy-5-{2-[(3-methoxy-5-methylphenyl)amino]-4-[5-methyl-3-(trifluoromethyl)-1H-pyrazol-1-yl]pyrimidin-5-yl}pyridin-3-yl)-1,3,4-oxadiazol-2(3H)-one] it was 100%; in that of `CCn1cc(-c2cnc(Nc3cc(C)cc(OC)c3)nc2-n2ccc(C(F)(F)F)n2)cc(C(=O)O)c1=O` [Example 1172, 1-ethyl-5-{2-[(3-methoxy-5-methylphenyl)amino]-4-[3-(trifluoromethyl)-1H-pyrazol-1-yl]pyrimidin-5-yl}-2-oxo-1,2-dihydropyridine-3-carboxylic acid], 100%; in that of `COc1cc(C)cc(Nc2ncc(-c3cc(C(=O)NS(C)(=O)=O)c(=O)n(C)c3)c(-n3ccc(C(F)(F)F)n3)n2)c1` [Example 1173, 5-{2-[(3-methoxy-5-methylphenyl)amino]-4-[3-(trifluoromethyl)-1H-pyrazol-1-yl]pyrimidin-5-yl}-1-methyl-N-(methylsulfonyl)-2-oxo-1,2-dihydropyridine-3-carboxamide], 100%.
Same read-out and setting: in the case of `COc1cc(C)cc(Nc2ncc(-c3cc(C(=O)NS(C)(=O)=O)c(=O)n(C)c3)c(-n3nc(C(F)(F)F)cc3C)n2)c1` [Example 1174, 5-{2-[(3-methoxy-5-methylphenyl)amino]-4-[5-methyl-3-(trifluoromethyl)-1H-pyrazol-1-yl]pyrimidin-5-yl}-1-methyl-N-(methylsulfonyl)-2-oxo-1,2-dihydropyridine-3-carboxamide] it was 100%; in that of `CCn1cc(-c2cnc(Nc3cc(C)cc(OC)c3)nc2-n2ccc(C(F)(F)F)n2)cc(C(=O)NS(C)(=O)=O)c1=O` [Example 1175, 1-ethyl-5-{2-[(3-methoxy-5-methylphenyl)amino]-4-[3-(trifluoromethyl)-1H-pyrazol-1-yl]pyrimidin-5-yl}-N-(methylsulfonyl)-2-oxo-1,2-dihydropyridine-3-carboxamide], 99%; in that of `CCn1cc(-c2cnc(Nc3cc(C)cc(OC)c3)nc2-n2nc(C(F)(F)F)cc2C)cc(C(=O)NS(C)(=O)=O)c1=O` [Example 1176, 1-ethyl-5-{2-[(3-methoxy-5-methylphenyl)amino]-4-[5-methyl-3-(trifluoromethyl)-1H-pyrazol-1-yl]pyrimidin-5-yl}-N-(methylsulfonyl)-2-oxo-1,2-dihydropyridine-3-carboxamide], 100%.
Still for that read-out and setting: in the case of `COc1cc(Nc2ncc(-c3cncc(C(=O)O)c3)c(-n3nc(C(F)F)cc3C)n2)cc(OC)c1` [Intermediate 1126, 5-(4-(3-(difluoromethyl)-5-methyl-1H-pyrazol-1-yl)-2-(3,5-dimethoxyphenylamino)pyrimidin-5-yl)nicotinic acid] it was 100%.
For “(E)-3-{3-[2-(3- Methoxy-5- tetrazol-1-yl- phenylamino)- 4-morpholin-4- yl-pyrimnidin-5- yl]-phenyl}- acrylic acid [Example 406]”, the “% Inh (13 μM) of S. pneumoniae Topoisomerase IV ATPase” value in experiment [1] came to 99%.
